From patent publication US11279734B2, “Solution-phase affinity selection of inhibitors from combinatorial peptide libraries” (Massachusetts Institute of Technology, priority 2017, dated 2022)
Entries after “also recorded” stand apart in the source; their conditions may differ. Like-named read-outs stand apart in the source and are kept apart here. Where no end group is shown, it is not given here. [ ]: non-standard residue; d: D form. Cha = N[C@@H](CC1CCCCC1)C(=O)O

What was measured:
SUMO-25-109 MDM2 [1] = target: T1, SUMO-25-109 MDM2 (Homo sapiens, UniProt Q00987); experiment: BLI in solution competition assay; format: binding; conditions: for binding to MDM2 (in words): acetylated peptides or mini-proteins, BLI
Method: Calibration Curve: Streptavidin (SA) sensors were soaked in competition buffer (PBS supplemented with 0.05% Tween-20, and L-arginine pH 7.5) for 10 minutes at 30° C. […] The thus obtained biotinylated 63a (0.5 μM in competition buffer) was loaded on the SA sensor for 10 minutes at 30° C. and 1000 rpm. […] A calibration curve corresponding to binding response at equilibrium (in nm)=f(free [MDM2] in nM) was generated using GraphPad Prism 6 software using non-linear regression analysis (see FIG. 5).
Meanwhile, SA sensors were soaked in competition buffer for 10 minutes at 30° C. […] Based on the binding (nm) values, the concentration of “free” MDM2 was interpolated for each sample using the calibration curve. […] The following equation was used to generate fitted curves.

SJSA-1 cells [2] = experiment: Cell viability assay (MTS); format: cell-based; conditions: 72 hours
Method: (§1) SJSA-1, K-562 and MCF-7 cells were plated in 96-well plates in RPMI-1640 containing 10% FBS and 1% Pen-Strep and the next day were treated with the indicated concentrations of peptide or vehicle control. Peptide stocks were diluted into RPMI-1640 containing 10% FBS and 1% Pen-Strep to achieve 2× working individual stock solutions that were thoroughly mixed then diluted into the treatment wells. Cell viability was assayed after 72 hours by addition of CellTiter 96® AQueous One Solution Cell Proliferation reagent (MTS). All assays were performed in triplicate, and data was normalized to vehicle treated control and analyzed using Prism software (GraphPad Software).

SJSA-1 cells [3] = experiment: Western blot analysis of p53 activation (MDM2, p21); format: cell-based; conditions: 10 μM, 12 hours
Method: SJSA-1 and K-562 cells were seeded in 6 well plates at a cell density of 350*10^3 cells/well in RPMI-1640 media supplemented with 10% serum and 1% Pen-Strep and incubated overnight at 37° C. and 5% CO2. The next day cells were treated with peptides and controls at 10 μM for 12 hours. Then cells were harvested and their pellets washed (2×) with PBS and lysed in 100 μL of RIPA buffer supplemented with Roche protease inhibitor cocktail on ice for 30 minutes. The lysates were clarified by brief centrifugation at 4° C. and total protein concentration was determined using the Bio-Rad DC protein assay. Aliquots of the cell lysates were run on 12% Tris-Glycine polyacrylamide gels (Invitrogen). After transfer using Trans-Blot Turbo Transfer system (Biorad), the membrane was blocked at room temperature for 2 hours with LI-COR blocking buffer. The membrane was cut in three and each part was incubated respectively with anti-MDM2 (mouse, SMP14: sc-965, Santa Cruz Biotechnology), anti-p21 (mouse, F-5: sc-6246, Santa Cruz Biotechnology) and anti-GAPDH (rabbit, GAPDH (D16H11) XP®, Cell Signaling Technology) antibodies in TBST overnight at 4° C. The membranes were washed and incubated with the appropriate secondary antibodies in TBST for 1 h at room temperature, washed again, then imaged with the LI-COR Odyssey infrared imaging system (see FIGS. 103-105).

MDM2 [4] = target: T2, MDM2 (Homo sapiens, UniProt Q00987); experiment: HPSEC affinity selection under increasing stringency (EIC peak area); format: binding; conditions: usual stringency vs 100 μM of 6 and MDM2 lowered to […]
Method: SEC conditions: unless stated otherwise, high performance size exclusion column BIO-SEC-3, 7.8×150 mm, 3 μm particle size and 100 Å pore size was used. 100 μL of binding mixture containing peptides or peptide libraries and protein target was isocratically eluted in buffered mobile phase (25 mM Tris, 50 mM NaCl, pH 7.5, with or without L-arginine supplementation) at 1 mL/min flow rate for 15 minutes (typical backpressure ˜80-90 bars for a brand new column). Generally, mobile phase is also used as the binding buffer for affinity selection experiments, and systematically before each experiment a blank injection is performed consisting in a protein only injection. During affinity selection experiments the breakthrough fraction (protein fraction) was monitored by UV and collected. The latter contained the protein-binder complexes which were dissociated using 0.2% formic acid before characterization using LC-MS or LC-MS/MS analysis.

MDM2 [5] = target: T2, MDM2; experiment: Kd MDM2 (nM)
Text: Table printed on a drawing sheet, Figure 2B
Head of the field: Kd MDM2 (nM)
The patent's description of the figure: FIGS. 2A-2F: Rapid combinatorial mapping of pDI (6) key binding residues and affinity selection of potent non-canonical inhibitors of ^25-109MDM2 and C-CA proteins. FIG. 2A) Combinatorial mapping of pDI (6) binding hotspots, library design. Represented are 6's randomized residues using L-configured (circles) natural amino acids. FIG. 2B) Affinity selected sequences from Library 1 and 2 at different stringencies (sequences 1 to 9) were validated after resynthesis and biotinylation or acetylation (peptides 1a to 6a and 7b to 9b) using bio-layer interferometry (BLI). In bold italic are represented randomized residues, and those that were varied compared to sequence 6. FIG. 2C) Expanding linear inhibitor hotspots to non-canonical amino acids. Library 3 was designed around 6 while Library 4 was designed around CAI (37) inhibitor. Depicted are randomized residues using non-canonical amino acids (abbreviations for each monomer are indicated in bold). FIG. 2D) Affinity selection from Library 3 at higher stringency using 6 as a soluble competitive inhibitor. […]
First copying reader's note: Randomized residues are printed in italic (bold or grey); this styling is not kept in the grid.
Where the first naming reader finds the target: head: Kd MDM2 (nM)

SUMO-25-109 MDM2 [6] = target: T1, SUMO-25-109 MDM2; format: binding; conditions: biotinylated peptides, BLI
MCF-7 cells = experiment: Cell viability assay (MTS); format: cell-based; conditions: MCF-7 cells (MDM2 and MDMX overexpressing), 72 hours
Method: as §1

K-562 cells = experiment: Cell viability assay (MTS); format: cell-based; conditions: K-562 p53-null cells, 72 hours
Method: as §1

LT(F2f)EHY(Hexa)AQ(Cba)TSK [peptide 10b]
binding to MDM2 (in words) (SUMO-25-109 MDM2 [1]; in solution competition): low nanomolar affinity to MDM2

LT(F2f)(R8)EFWAQ(Cba)(S5)SAA [peptide 11b-M]
binding to MDM2 (in words) (SUMO-25-109 MDM2 [1]; in solution competition): low nanomolar affinity | cell killing / viability (SJSA-1 cells [2]): cell-killing properties | upregulation of MDM2 and p21 (SJSA-1 cells [3]): upregulated p21 and MDM2

LT(F2f)EHYWAQ(Cba)TSK [peptide 11]
EIC peak area variation from condition (A) to (D) (MDM2 [4]): 30 fold

Ac-LTYEHYWAQLTSK-NH2 [SEQ ID NO: 67 | 8b]
Kd (MDM2 [5]): 2700 nM

LT(F2f)EHYWAQ(Cba)TSK [peptide 11b]
binding to MDM2 (in words) (SUMO-25-109 MDM2 [1]; in solution competition): low nanomolar affinity

LTFCys(ar)HYWAQFCys(ar)SK [peptide 61a]
binding to MDM2 (in words) (SUMO-25-109 MDM2 [6]): substantially weaker binding compared to 60a

KAWYAN(CF3f)EKLLR [peptide 53]
affinity for MDM2 lower than 54b (SUMO-25-109 MDM2 [1]; label free approach, relative to 54b): about 20 fold

LTFEHYWAQFTSK [peptide 5a]
binding to MDM2 (in words) (SUMO-25-109 MDM2 [6]): nanomolar binder

Bio-(PEG)4- Leu Thr F2f Glu His Tyr Trp Ala Gln Cba Thr Ser Lys -NH2 [(SEQ ID NO: 12) | 11a]
Kd (MDMX): 33 nM

LT(F2f)EHY(Hexa)AQ(Cba)TSK [peptide 10a]
binding to MDM2 (in words) (SUMO-25-109 MDM2 [6]): high affinity binder

LT(F2f)EHY(Hexa)AQ(Cba)TSK [peptide 10]
EIC peak area variation from condition (A) to (D) (MDM2 [4]): 4.5 fold

LT(F2f)KEYWAE(Cba)KSAA [peptide 11b-S4]
binding to MDM2 (in words) (SUMO-25-109 MDM2 [1]; in solution competition): weakened or abrogated binding

LT(F2f)KEY(Hexa)AQ(Cba)(K)SAA [peptide 10b-S4]
binding to MDM2 (in words) (SUMO-25-109 MDM2 [1]; in solution competition): weakened or abrogated binding

LT(F2f)(Dap)EYWAQ(Cba)(Dap)SAA [peptide 11b-S1]
binding to MDM2 (in words) (SUMO-25-109 MDM2 [1]; in solution competition): low nanomolar affinity | cell killing / viability (SJSA-1 cells [2]): cell-killing properties; also recorded: killed SJSA-1 cells | cell viability (MCF-7 cells): lowered viability for MCF-7 cells | cell viability (K-562 cells): did not significantly lower K-562 viability | upregulation of MDM2 and p21 (SJSA-1 cells [3]): upregulated MDM2 and P21 markers; also recorded: upregulated p53 gene products p21 and MDM2

KAWYAN[Cha]EKLLR [peptide 45]
Kd (SUMO-25-109 MDM2 [1]; in solution competition, acetylated peptide or mini-protein, fitted titration curve): 6.1 nM

Bio-(PEG)4- Leu Thr F2f Glu His Tyr Hexa Ala Gln Cba Thr Ser Lys -NH2 [(SEQ ID NO: 11) | 10a]
Kd (MDMX): 26 nM

LT(F2f)(R8)EY(Napa)AE(Cba)KSAA [peptide 27b-M]
binding to MDM2 (in words) (SUMO-25-109 MDM2 [1]; in solution competition): low nanomolar affinity | cell killing / viability (SJSA-1 cells [2]): cell-killing properties | cell viability (MCF-7 cells): lowered viability for MCF-7 cells | cell viability (K-562 cells): did not significantly lower K-562 viability | upregulation of MDM2 and p21 (SJSA-1 cells [3]): upregulated p21 and MDM2

LT(F2f)(R8)EY(Hexa)AQ(Cba)(S5)SAA [peptide 10b-M]
binding to MDM2 (in words) (SUMO-25-109 MDM2 [1]; in solution competition): low nanomolar affinity | cell killing / viability (SJSA-1 cells [2]): cell-killing properties; also recorded: killed SJSA-1 cells | cell viability (MCF-7 cells): lowered viability for MCF-7 cells | cell viability (K-562 cells): did not significantly lower K-562 viability | upregulation of MDM2 and p21 (SJSA-1 cells [3]): upregulated MDM2 and P21 markers

Bio-(PEG)4- Leu Thr Phe Glu His Tyr Trp Ala Gln Leu Thr Ser Lys -NH2 [(SEQ ID NO: 8) | 6a]
Kd (MDMX): 83 nM
